The values below are quoted from earlier work in article PMC10482975 (Nature Communications, 2023).

This series concerns the target M2 mAChR. To be noted: read-out: predicted affinity for allosteric binding; cited from earlier work.

pKd: −log10 of the molar value. Where only a bound is given, the exact number is not on record here.

For the compound `C[N+](C)(C)CC#CCN1CCCC1=O` [oxotremorine-M], the pKd was under 3.00.
